Results: article PMC10747034 (Tropical Medicine and Infectious Disease, 2023)

Assays:
Madurella mycetomatis = tested on: Madurella mycetomatis; set-up: method as in PMID 35120131; conditions: read-out: IC50 against Madurella mycetomatis; cited from earlier work
NHDF cells = test: Cytotoxicity assay (MTS, 7 days); format: cell-based, Human; conditions: MTS, ND = 100% viability up to 10 µM, read-out: Cytotoxicity against NHDF (7 Days) CC50
Protocol: For that, 96-well tissue plates containing NHDF cells were treated with different concentrations of compounds up to 10 µM for seven days. Control cells were incubated with 0.5% DMSO. At the end of the treatment, cell viability was then analyzed through the colorimetric method of MTS (Promega, Madison, WI, USA). […] Data were analyzed using GraphPad Prim 8.0 software. IC50 and CC50 calculations were performed by fitting the values of proliferation/viability in percentage to a non-linear curve followed by dose–response inhibition analysis through log(inhibitor) vs. normalized response.

T. gondii tachyzoites = test: Ultrastructural analysis through transmission electron microscopy; format: cell-based, Toxoplasma gondii; conditions: 1 µM, 48 h
Protocol: T-25 cm^2 flasks for cell culture with confluent monolayers of NHDF were infected with freshly egressed tachyzoite in a ratio of 10:1 parasite per cell for 2 h of interaction. The flasks were washed and fresh RPMI was added for another two hours. After this, the compounds were added and infected cells were treated for 48 h. The sample fixation and processing for microscopy were performed as previously described.

[1] = tested on: Toxoplasma gondii tachyzoites of RH strain; test: Plaque assay (7 days) in NHDF monolayers infected with T. gondii; format: cell-based; conditions: 7 days of treatment, two independent experiments
Protocol: After NHDF reached confluency, each well was replaced with fresh medium containing one compound at a concentration of 1 µM, and then infected with 1000 newly egressed tachyzoites from RH strain [29]. Screening at 1 μM is recommended by MMV. As a control, infected cells were incubated with complete medium and 0.01% DMSO [29]. The plates were then kept in an incubator at 37 °C in a humid atmosphere with 5% CO2 for seven days. After this time, cultures were fixed with 70% ethanol and stained with crystal violet to observe the plates.
For that, 12-well plates containing a monolayer of NHDF were infected with 600 tachyzoites of the RH strain of T. gondii and treated with different concentrations for seven days. IC50s of compounds were calculated using GraphPad Prism 8.0 software.
Data were analyzed using GraphPad Prim 8.0 software. IC50 and CC50 calculations were performed by fitting the values of proliferation/viability in percentage to a non-linear curve followed by dose–response inhibition analysis through log(inhibitor) vs. normalized response.

[2] = tested on: Toxoplasma gondii tachyzoites of RH strain; test: Forty-eight-hour antiproliferative assay; format: cell-based; conditions: 1 µM, 48 h
Protocol: NDHF cell monolayers were plated in a 24-well tissue plate containing coverslips, and after confluency was reached, cells were infected with a ratio of 5:1 parasite/host cells with freshly egressed RH strain tachyzoites for two hours. Then, cells were washed twice with phosphate-buffered saline, pH 7.4 (PBS), to remove non-invaded parasites and incubated with a complete medium for two hours more. After this time, infected cells were treated for 48 h with different concentrations of selected compounds, based on the IC50 obtained through plaque assay. At the end of the experiment, the cells were washed with PBS, stained with Bouin for 10 min, washed with 70% alcohol, and stained with solutions 2 and 3 of the Fast Panoptic kit for 60 and 10 s, respectively. Two hundred infected cells were quantified per slide using the 100× objective of a Leica DM500 optical microscope, stratifying the number of infected and non-infected cells and the amount of tachyzoite in each infected cell. The proliferation index is the ratio of the product of the total amount of tachyzoites and the percentage of infected cells by the total number of cells.

SMILES: Clc1cc(Cl)c2c(c1)CCc1ccccc1C2n1ccnc1 (centres unmarked) [Eberconazole]
- IC50 (Madurella mycetomatis): 720 nM
- CC50 (NHDF cells): > 10000 nM
- Ultrastructural alterations on tachyzoites (TEM) (T. gondii tachyzoites): induced mitochondrial swelling (white arrowhead) and extensive vacuolization
- IC50 [1]: 724 ± 12.6 nM
- Inhibition of parasite proliferation [2]: more than 60%
